Measured values: patent publication US11229664B2, “Treatment of myelosuppression” (priority 2012, dated 2022)
“And” between values parts separate entries of the source, which are not always exact repeats. Equal values may be shown once.

What was measured:
[1] = tested on: Human ovarian cancer cell line A2780; test: A2780 human ovarian cancer xenograft model: tumor weight; assay type: in vivo, athymic female mice; parameters: key to Mouse status printed in place of tumor weight: FD = Found Dead; TS = Terminal Sacrifice; details: for Tumor weight, individual mice: listed as PGX ODSH; for Mouse status printed in place of tumor weight: Groups 2 and 3
Protocol: ODSH (50 mg/mL stock concentration) was made by Pyramid Laboratories, Inc. and stored at room temperature until use. As described further below, ODSH was administered either intravenously (IV), at a dose of 48 mg/kg and volume of 10 mL/kg, or subcutaneously (SC) at a dose of 24 mg/kg and volume of 5 ml/kg. Carboplatin obtained from a clinical supplier was stored at 4° C. until use. Carboplatin was administered by intraperitoneal injection (IP) at a dose of 80 mg/kg and volume of 10 mL/kg. Saline solution (0.9% NaCl) was used as a vehicle control for ODSH and administered by the same routes and in the same volumes as ODSH.
Human ovarian cancer cell line A2780 was used in the murine xenograft experiments as follows. Approximately 5×10^6 A2780 cells were used per mouse, injected subcutaneously into the right flank in 0.1 mL of 50% Matrigel/50% media. The study was initiated when tumors reached a size of 90-130 mg. 40 mice were used, 10 per treatment regimen. The mice were normal athymic female mice, aged 6-7 weeks, housed in microisolator cages and maintained under pathogen-free conditions. Tumor and body weights were measured three times per week.
Four treatment groups were studied.

[2] = tested on: metastatic adenocarcinoma of the pancreas; test: Clinical trial: tumor response and disease status (RECIST 1.1), ECOG performance status; assay type: in vivo, human
Protocol: Treatment consisted of a series of 28-day cycles, wherein the last day of one cycle (e.g., day 28, cycle 1) was immediately followed by the first day of the next cycle (e.g., day 1, cycle 2). In each 28-day treatment cycle, patients were dosed at days 1, 8, and 15 (three weeks of medication followed by one week of rest) as follows. First, nab-paclitaxel at 125 mg/m^2 was administered as an intravenous infusion over 30 minutes. […] Nab-paclitaxel and gemcitabine therapy was given as described in the prescribing information for Abraxane® and Gemzar®. See also, Von Hoff et al., 2011, J. Clinical Oncology 29:1-7).
(§1) As a substantially non-anticoagulant heparinoid, ODSH can be administered at a dose that is greater than the fully anticoagulant dose of unfractionated heparin, without concern for anticoagulant effect, as shown in the Results below.
Blood samples were also tested on day 1 of each treatment cycle for the serum level of CA19-9 (carbohydrate antigen 19-9) a marker used to assess the efficacy of the chemotherapy agents in treating pancreatic cancer. See. e.g., Maeda, 2011, Int. J. Clin. Oncol. 16(5):539-45. Reduction in the serum level of CA19-9 is indicative of chemotherapeutic efficacy against the pancreatic cancer. Tumor response and disease status was measured according to Response Evaluation Criteria in Solid Tumors (RECIST) Guidelines Version 1.1. Eur. J. Cancer, 2009, 45:228-247. A reduction of at least 30% in the sum of the diameters of target lesions (measurable lesions present at screening, up to 2 lesions per involved organ) was scored as a partial response. Patients were scored as having stable disease where the smallest sum of target lesion diameters neither decreased nor increased sufficiently to qualify as a partial response or progressive disease.

[3] = tested on: partial thromboplastin time (aPTT); test: Clinical trial: partial thromboplastin time (aPTT) during ODSH infusion; assay type: in vivo, human; details: for aPTT: individual patients
Description: as §1
Lack of anticoagulation by ODSH was confirmed by monitoring partial thromboplastin time (aPTT) during ODSH infusion, at days 1, 3, 10, and 17 of treatment cycle 1. Normal range of aPTT is about 27 to 35 seconds+/−15%.

[4] = ten patients, ODSH adjunct to gemcitabine/nab-paclitaxel

**Q.** Which results are given for “substantially 2-O, 3-O desulfated heparin [ODSH]”?
**A.** Tumor weight, Mean ([1]; Day 1): 107.0 mg; Tumor weight, Median ([1]; Day 1): 105.5 mg; Tumor weight, individual mice ([1]; Day 1, Mouse 1-10): 104 mg (2×) and 107 mg and 109 mg and 112 mg and 120 mg and 126 mg and 90 mg and 96 mg and 101 mg; Tumor weight, Mean ([1]; Day 4): 146.8 mg; Tumor weight, Median ([1]; Day 4): 134.2 mg; Tumor weight, individual mice ([1]; Day 4, Mouse 1-10): 159 mg and 111 mg and 195 mg and 131 mg and 173 mg and 124 mg and 200 mg and 121 mg and 117 mg and 138 mg; Tumor weight, Mean ([1]; Day 6): 240.3 mg; Tumor weight, Median ([1]; Day 6): 238.2 mg; Tumor weight, individual mice ([1]; Day 6, Mouse 1-10): 309 mg and 215 mg and 347 mg and 264 mg and 235 mg and 139 mg and 282 mg and 241 mg and 171 mg and 201 mg; Tumor weight, Mean ([1]; Day 8): 382.2 mg; Tumor weight, Median ([1]; Day 8): 392.0 mg; Tumor weight, individual mice ([1]; Day 8, Mouse 1-10): 449 mg and 321 mg and 639 mg and 413 mg and 411 mg and 183 mg and 422 mg and 373 mg and 315 mg and 296 mg; Tumor weight, Mean ([1]; Day 11): 609.6 mg; Tumor weight, Median ([1]; Day 11): 585.4 mg; Tumor weight, individual mice ([1]; Day 11, Mouse 1-10): 816 mg and 366 mg and 910 mg and 653 mg and 536 mg and 349 mg and 811 mg and 635 mg and 491 mg and 529 mg; Tumor weight, Mean ([1]; Day 14): 984.4 mg; Tumor weight, Median ([1]; Day 14): 949.7 mg; Tumor weight, individual mice ([1]; Day 14, Mouse 1-10): 1,303 mg and 670 mg and 1,499 mg and 1,032 mg and 868 mg and 559 mg and 1,253 mg and 1,084 mg and 815 mg and 762 mg; Tumor weight, Mean ([1]; Day 18): 1,501.7 mg; Tumor weight, Median ([1]; Day 18): 1,591.5 mg; Tumor weight, individual mice ([1]; Day 18, Mouse 1-10): 1,796 mg and 1,150 mg and 1,836 mg and 1,568 mg and 1,714 mg and 891 mg and 1,869 mg and 1,615 mg and 1,157 mg and 1,422 mg; Tumor weight, Mean ([1]; Day 21): 2,072.6 mg; Tumor weight, Median ([1]; Day 21): 1952.5 mg; Tumor weight, individual mice ([1]; Day 21, Mouse 1-10): 2,692 mg and 1,467 mg and 2,639 mg and 1,852 mg and 1,880 mg and 1,289 mg and 2,560 mg and 2,642 mg and 1,681 mg and 2,025 mg; Tumor weight, Mean ([1]; Day 25): 2,343.5 mg; Tumor weight, Median ([1]; Day 25): 2,422.8 mg; Tumor weight, individual mice ([1]; Day 25, Mouse 1-10): 2,414 mg and 2,464 mg and 2,599 mg and 1,817 mg and 2,423 mg; Mouse status printed in place of tumor weight ([1]; Day 25, individual mice): TS; Tumor weight, Mean ([1]; Day 28): 3,349.0 mg; Tumor weight, Median ([1]; Day 28): 3,251.6 mg; Tumor weight, individual mice ([1]; Day 28, Mouse 1-10): 3,909 mg and 3,784 mg and 3,252 mg and 2,671 mg and 3,129 mg; Mouse status printed in place of tumor weight ([1]; Day 28, individual mice): TS; ECOG Performance status ([2]; 7 evaluable patients, after 8 weeks in the trial (day 1 of cycle 3)): stable or improved; Patients with clinical or radiographic evidence of progressive disease ([2]; after three or four full cycles of treatment): no patient; Patients with partial response (RECIST) [2, 4]: 5 patients; Patients with stable disease (RECIST) [2, 4]: 5 patients; Anticoagulation as determined by partial thromboplastin time (aPTT) ([3]; 4 mg/kg bolus + 0.375 mg/kg/hr 48 h): did not result in anticoagulation; aPTT ([3]; Cycle 1 Day 1): 29 seconds (2×) and 24 seconds and 36 seconds and 33 seconds and 28 seconds and 26 seconds and 25 seconds and 27 seconds; aPTT ([3]; Cycle 1 Day 3): 28 seconds and 33 seconds (2×) and 43 seconds and 38 seconds and 31 seconds (3×) and 34 seconds; aPTT ([3]; Cycle 1 Day 10): 34 seconds (2×) and 32 seconds and 38 seconds and 35 seconds and 31 seconds (2×) and 33 seconds and 36 seconds; aPTT ([3]; Cycle 1 Day 17): 34 seconds and 28 seconds and 30 seconds (2×) and 42 seconds and 36 seconds and 33 seconds and 29 seconds
